Like-named read-outs stand apart in the source and are kept apart here.
Columns and labels:
IMP-1 = IMP-1 (Serratia marcescens, UniProt P52699); test: biochemical; format: biochemical; details: read-out: IMP-1 IC50
[1] = tested on: Serratia marcescens expressing IMP-1 (CL5741); test: Antibiotic potentiation activity: synergistic concentration (MITC95) with imipenem, OD600 growth; format: cell-based
Summary of the method: (§1)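 Each strain, suspended in saline from overnight colonies and diluted 1:100 into 1.1× CAMHB, is dosed with imipenem at 4 μg/ml (or 1 μg/ml) plus compound, incubated 22–24 h at 35 °C and read by absorbance.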

[2] = tested on: Escherichia coli expressing NDM-1 (CLB30016); test: as above; format: cell-based
Summary of the method: as §1

[3] = tested on: Klebsiella pneumoniae expressing VIM-1 (IHMA599644); test: as above; format: cell-based
Summary of the method: as §1

VIM-1 = VIM-1 (Pseudomonas aeruginosa (strain ATCC 15692 / DSM 22644 / CIP 104116 / JCM 14847 / LMG 12228 / 1C / PRS 101 / PAO1), UniProt A0A0F7KYQ8); test: Enzyme activity: determination of IC50, fluorescence assay with CCF2-FA substrate (VIM-1); format: biochemical
NDM-1 = NDM-1 (Klebsiella pneumoniae, UniProt C7C422); test: biochemical; format: biochemical; details: read-out: NDM-1 IC50
[4] = fluorescence assay with CCF2-FA substrate
[5] = CL5741 (IMP-1), 95% inhibition of bacterial growth
[6] = CLB30016 (NDM-1), 95% inhibition of bacterial growth
[7] = IHMA599644 (VIM-1), 95% inhibition of bacterial growth
[8] = fluorescence assay with CCF2-FA substrate, read-out: VIM-1 IC50
[9] = IMP-1 enzyme, CCF2-FA fluorescence assay
[10] = Serratia marcescens expressing IMP-1 (CL5741), 95% growth inhibition
[11] = Escherichia coli expressing NDM-1 (CLB30016), 95% growth inhibition
[12] = Klebsiella pneumoniae expressing VIM-1 (IHMA599644), 95% growth inhibition
[13] = VIM-1 enzyme, CCF2-FA fluorescence assay, read-out: VIM-1 IC50
[14] = NDM-1 enzyme, CCF2-FA fluorescence assay
[15] = IMP-1 enzyme, CCF2-FA substrate
[16] = Serratia marcescens CL5741 (IMP-1), 95% growth inhibition
[17] = (CLB30016, NDM-1), 95% growth inhibition
[18] = Klebsiella pneumoniae IHMA599644 (VIM-1), 95% growth inhibition
[19] = VIM-1 enzyme, CCF2-FA substrate, read-out: VIM-1 IC50
[20] = NDM-1 enzyme, CCF2-FA substrate

Sequence of IMP-1 (P52699 whole entry, looked up): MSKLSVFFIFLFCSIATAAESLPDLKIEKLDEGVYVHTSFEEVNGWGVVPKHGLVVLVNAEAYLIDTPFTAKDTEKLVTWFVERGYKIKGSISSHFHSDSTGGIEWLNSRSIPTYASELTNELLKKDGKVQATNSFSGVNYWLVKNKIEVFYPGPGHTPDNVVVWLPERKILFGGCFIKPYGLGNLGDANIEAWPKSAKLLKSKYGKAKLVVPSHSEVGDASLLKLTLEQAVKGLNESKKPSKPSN
Sequence of NDM-1 (C7C422 whole entry, looked up, species assumed): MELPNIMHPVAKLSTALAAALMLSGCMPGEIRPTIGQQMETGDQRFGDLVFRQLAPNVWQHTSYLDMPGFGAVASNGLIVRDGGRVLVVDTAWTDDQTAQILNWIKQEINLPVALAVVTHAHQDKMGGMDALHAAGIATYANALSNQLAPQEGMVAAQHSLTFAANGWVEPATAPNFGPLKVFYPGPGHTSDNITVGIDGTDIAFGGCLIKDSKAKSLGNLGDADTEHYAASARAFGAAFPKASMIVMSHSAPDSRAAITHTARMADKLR

| SMILES | IC50 (IMP-1; [15]) | Serratia marcescens MITC95 [1, 16] | Escherichia coli MITC95 [2, 17] | Klebsiella pneumoniae MITC95 [3, 18] | IC50 (VIM-1; [19]) | IC50 (NDM-1; [20]) | other results |
| --- | --- | --- | --- | --- | --- | --- | --- |
| NS(=O)(=O)c1c(C(F)(F)F)ccc(N2CC[C@H]3NCCO[C@@H]3C2)c1-c1nnn[nH]1 [Example 773, 3-[(4aR,8aR)-octahydro-6H-pyrido[3,4-b][1,4]oxazin-6-yl]-2-(1H-tetrazol-5-yl)-6-(trifluoromethyl) benzenesulfonamide] |  |  |  |  |  |  | IC50 (IMP-1; [4]): 17.2 nM; Serratia marcescens MITC95 [1, 5]: 6.25 µM; Escherichia coli MITC95 [2, 6]: 6.25 µM; Klebsiella pneumoniae MITC95 [3, 7]: 3.125 µM; IC50 (VIM-1; [8]): 1.11 nM; IC50 (NDM-1; [4]): 31.8 nM |
| N=C(N)N1Cc2ccc(-c3ccc(C(F)(F)F)c(S(N)(=O)=O)c3-c3nn[nH]n3)cc2C1 [Example 446, 5-(3-sulfamoyl-2-(2H-tetrazol-5-yl)-4-(trifluoromethyl)phenyl)isoindoline-2-carboximidamide] |  |  |  |  |  |  | IC50 (IMP-1; [9]): 19.4 nM; Serratia marcescens MITC95 [1, 10]: 0.3906 µM; Escherichia coli MITC95 [2, 11]: 1.563 µM; Klebsiella pneumoniae MITC95 [3, 12]: 1.563 µM; IC50 (VIM-1; [13]): 0.252 nM; IC50 (NDM-1; [14]): 15.4 nM |
| Nc1cc(-c2cccc(S(N)(=O)=O)c2-c2nn[nH]n2)cnc1N [Example 523, 3-(5,6-Diaminopyridin-3-yl)-2-(2H-tetrazol-5-yl)benzenesulfonamide] | 1210 nM | 9.375 µM | 0.125 µM | 4.125 µM | 226 nM | 20.2 nM |  |
| N[C@@]1(c2ccc(-c3ccc(C(F)(F)F)c(S(N)(=O)=O)c3-c3nn[nH]n3)cc2)CCNC1 [Example 548, 3-[4-[(3R)-3-aminopyrrolidin-3-yl]phenyl]-2-(2H-tetrazol-5-yl)-6-(trifluoromethyl)benzenesulfonamide] | 10.5 nM | 3.125 µM | 3.125 µM | 1.563 µM | 0.519 nM | 7.54 nM |  |
| CC(C)(O)C1CN(Cc2ccc(-c3cccc(S(N)(=O)=O)c3-c3nnn[nH]3)cc2)C1 [Example 336, 4′-((3-(2-hydroxypropan-2-yl)azetidin-1-yl)methyl)-2-(1H-tetrazol-5-yl)-[1,1′-biphenyl]-3-sulfonamide] |  |  |  |  |  |  | IC50 (IMP-1; [9]): 379 nM; Serratia marcescens MITC95 [1, 10]: 4.688 µM; Escherichia coli MITC95 [2, 11]: 0.7813 µM; Klebsiella pneumoniae MITC95 [3, 12]: 100 µM; IC50 (VIM-1; [13]): 634 nM; IC50 (NDM-1; [14]): 34 nM |
| NS(=O)(=O)c1c(C(F)(F)F)ccc(N2CCC[C@@H](O)C2)c1-c1nnn[nH]1 [Example 665, 3-[(3R)-3-hydroxypiperidin-1-yl]-2-(1H-tetrazol-5-yl)-6-(trifluoromethyl)benzenesulfonamide] | 29.8 nM | 1.172 µM | 1.563 µM | 4.688 µM | 0.999 nM | 7.48 nM |  |
| CC1(O)CCCN(c2ccc(C(F)(F)F)c(S(N)(=O)=O)c2-c2nnn[nH]2)C1 (stereo not drawn) [Example 654, 3-(3-hydroxy-3-methylpiperidin-1-yl)-2-(1H-tetrazol-5-yl)-6-(trifluoromethyl)benzenesulfonamide] | 19.6 nM | 1.172 µM | 4.688 µM | 9.375 µM | 1.23 nM | 6.85 nM |  |
| N=C(N)N1CCC([C@H]2CC[C@H](c3ccc(C(F)(F)F)c(S(N)(=O)=O)c3-c3nnn[nH]3)CC2)CC1 [Example 825, 4-[4-[3-sulfamoyl-2-(1H-tetrazol-5-yl)-4-(trifluoromethyl)phenyl]cyclohexyl] piperidine-1-carboxamidine] |  |  |  |  |  |  | IC50 (IMP-1; [4]): 0.499 nM; Serratia marcescens MITC95 [1, 5]: 1.563 µM; Escherichia coli MITC95 [2, 6]: 0.7813 µM; Klebsiella pneumoniae MITC95 [3, 7]: 3.125 µM; IC50 (VIM-1; [8]): 0.0805 nM; IC50 (NDM-1; [4]): 0.157 nM |
| NC1CCC(N[C@H]2CC[C@H](c3ccc(C(F)(F)F)c(S(N)(=O)=O)c3-c3nnn[nH]3)CC2)C1 (stereo partly drawn) [Example 691, 3-{4-[(3-aminocyclopentyl)amino]cyclohexyl}-2-(1H-tetrazol-5-yl)-6-(trifluoromethyl)benzene sulfonamide] | 51.8 nM | 3.125 µM | 0.7813 µM | 3.125 µM |  | 10.6 nM | IC50 (VIM-1; VIM-1 IC50, VIM-1 enzyme, CCF2-FA substrate): 6.13 nM |
| Nc1nc2c(-c3ccc(CCO)c(S(N)(=O)=O)c3-c3nn[nH]n3)cccc2s1 [Example 531, 3-(2-Aminobenzo[d]thiazol-4-yl)-6-(2-hydroxyethyl)-2-(2H-tetrazol-5-yl)benzenesulfonamide] | 32.1 nM | 12.5 µM | 6.25 µM | 12.5 µM | 8.36 nM | 2.07 nM |  |
| NS(=O)(=O)c1c(C(F)(F)F)ccc(N2CCC(N3CCNCC3)CC2)c1-c1nnn[nH]1 [Example 780, 3-(4-piperazin-1-yl-1-piperidyl)-2-(1H-tetrazol-5-yl)-6-(trifluoromethyl) benzenesulfonamide] |  |  |  |  |  |  | IC50 (IMP-1; [4]): 31.7 nM; Serratia marcescens MITC95 [1, 5]: 1.563 µM; Escherichia coli MITC95 [2, 6]: 1.563 µM; Klebsiella pneumoniae MITC95 [3, 7]: 2.344 µM; IC50 (VIM-1; [8]): 0.274 nM; IC50 (NDM-1; [4]): 17.7 nM |
| NS(=O)(=O)c1c(C(F)(F)F)ccc([C@H]2CC[C@H](NC3CC[C@@H]4CNCC[C@H]4C3)CC2)c1-c1nnn[nH]1 (stereo partly drawn) [Example 684, 3-{4-[(4aS,8aS)-decahydroisoquinolin-6-ylamino]cyclohexyl}-2-(1H-tetrazol-5-yl)-6-(trifluoromethyl)benzene sulfonamide] | 75.7 nM | 6.25 µM | 3.125 µM | 12.5 µM | 10.8 nM | 38.6 nM |  |
| NS(=O)(=O)c1cccc(-c2ccc(CNC3CC(F)(F)C3)cc2)c1-c1nnn[nH]1 [Example 339, 4′-(((3,3-difluorocyclobutyl)amino)methyl)-2-(1H-tetrazol-5-yl)-[1,1′-biphenyl]-3-sulfonamide] |  |  |  |  |  |  | IC50 (IMP-1; [9]): 42.3 nM; Serratia marcescens MITC95 [1, 10]: 1.563 µM; Escherichia coli MITC95 [2, 11]: 0.5859 µM; Klebsiella pneumoniae MITC95 [3, 12]: >200 µM; IC50 (VIM-1; [13]): 611 nM; IC50 (NDM-1; [14]): 4.54 nM |
| NS(=O)(=O)c1cccc(-c2ccnc3ncccc23)c1-c1nnn[nH]1 [Example 406, 3-(1,8-naphthyridin-4-yl)-2-(1H-tetrazol-5-yl)benzenesulfonamide] |  |  |  |  |  |  | IC50 (IMP-1; [9]): 250 nM; Serratia marcescens MITC95 [1, 10]: 6.25 µM; Escherichia coli MITC95 [2, 11]: 1.172 µM; Klebsiella pneumoniae MITC95 [3, 12]: 3.125 µM; IC50 (VIM-1; [13]): 1.74 nM; IC50 (NDM-1; [14]): 1.65 nM |
| N#Cc1cccc2ncc(-c3cccc(S(N)(=O)=O)c3-c3nnn[nH]3)n12 [Example 649, 3-(5-cyanoimidazo[1,2-a]pyridin-3-yl)-2-(1H-tetrazol-5-yl)benzenesulfonamide] | 48.4 nM | 3.125 µM | 2.344 µM | 12.5 µM | 12.8 nM | 2.87 nM |  |
| N=C(N)N1CC(c2ccc(-c3ccc(CC4CCNCC4)c(S(N)(=O)=O)c3-c3nn[nH]n3)cc2)C1 [Example 603, 3-[4-[4-(4-piperidylmethyl)-3-sulfamoyl-2-(2H-tetrazol-5-yl)phenyl]phenyl]azetidine-1-carboxamidine] | 31.9 nM | 1.563 µM | 3.125 µM | 1.563 µM | 4.73 nM | 21.6 nM |  |
| Cn1c(-c2ccc(-c3ccc(C(F)(F)F)c(S(N)(=O)=O)c3-c3nnn[nH]3)cc2)cnc1N.O=C(O)C(F)(F)F [Example 560, 3-[4-(2-amino-3-methyl-imidazol-4-yl)phenyl]-2-(1H-tetrazol-5-yl)-6-(trifluoromethyl)benzenesulfonamide] | 0.898 nM | 3.125 µM | 6.25 µM | 6.25 µM | 0.212 nM | 0.727 nM |  |
| N=C(N)N[C@H]1CC[C@H](c2ccc(C(F)(F)F)c(S(N)(=O)=O)c2-c2nnn[nH]2)CC1 [Example 823, 1-[4-[3-sulfamoyl-2-(1H-tetrazol-5-yl)-4-(trifluoromethyl)phenyl]cyclohexyl] guanidine] |  |  |  |  |  |  | IC50 (IMP-1; [4]): 25.4 nM; Serratia marcescens MITC95 [1, 5]: 0.3906 µM; Escherichia coli MITC95 [2, 6]: 1.172 µM; Klebsiella pneumoniae MITC95 [3, 7]: 1.172 µM; IC50 (VIM-1; [8]): 0.666 nM; IC50 (NDM-1; [4]): 17.5 nM |
